Data as given in PubChem BioAssay (NCI).
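These data come from cells grown in 96-well plates and exposed to compound for 48 hours at five concentrations. GI50: concentration for 50% inhibition of growth. At the TGI there is no net growth.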

What was measured:
Experiment in all cases: inhibition of tumour cell growth, NCI panel, 48 h
HCC-2998 colon = test system: HCC-2998 colon
BT-549 breast = test system: BT-549 breast
SF-539 CNS = test system: SF-539 CNS
TK-10 renal = test system: TK-10 renal
COLO 205 colon = test system: COLO 205 colon
OVCAR-3 ovarian = test system: OVCAR-3 ovarian
MCF7 breast = test system: MCF7 breast
786-0 renal = test system: 786-0 renal
SK-MEL-2 melanoma = test system: SK-MEL-2 melanoma
U251 CNS = test system: U251 CNS
HCT-116 colon = test system: HCT-116 colon
SK-MEL-5 melanoma = test system: SK-MEL-5 melanoma
HOP-92 NSCLC = test system: HOP-92 NSCLC
MDA-MB-435 = test system: MDA-MB-435
SNB-19 CNS = test system: SNB-19 CNS
OVCAR-5 ovarian = test system: OVCAR-5 ovarian
SNB-75 CNS = test system: SNB-75 CNS
IGROV1 ovarian = test system: IGROV1 ovarian
SW-620 colon = test system: SW-620 colon
SK-MEL-28 melanoma = test system: SK-MEL-28 melanoma
ACHN renal = test system: ACHN renal
M14 melanoma = test system: M14 melanoma
OVCAR-4 ovarian = test system: OVCAR-4 ovarian
SF-268 CNS = test system: SF-268 CNS
SN12C renal = test system: SN12C renal
NCI/ADR-RES ovarian = test system: NCI/ADR-RES ovarian
UACC-257 melanoma = test system: UACC-257 melanoma
MOLT-4 leukemia = test system: MOLT-4 leukemia
HL-60(TB) leukemia = test system: HL-60(TB) leukemia
HT29 colon = test system: HT29 colon
NCI-H460 lung = test system: NCI-H460 lung
T-47D breast = test system: T-47D breast
A498 renal = test system: A498 renal
NCI-H522 lung = test system: NCI-H522 lung
LOX IMVI melanoma = test system: LOX IMVI melanoma
KM12 colon = test system: KM12 colon
SK-OV-3 ovarian = test system: SK-OV-3 ovarian
CAKI-1 renal = test system: CAKI-1 renal
CCRF-CEM leukemia = test system: CCRF-CEM leukemia
HS 578T breast = test system: HS 578T breast
MDA-MB-231 breast = test system: MDA-MB-231 breast
A549 NSCLC = test system: A549 NSCLC
OVCAR-8 ovarian = test system: OVCAR-8 ovarian
EKVX NSCLC = test system: EKVX NSCLC
UACC-62 melanoma = test system: UACC-62 melanoma
UO-31 renal = test system: UO-31 renal
RPMI-8226 leukemia = test system: RPMI-8226 leukemia
HOP-62 NSCLC = test system: HOP-62 NSCLC
NCI-H226 lung = test system: NCI-H226 lung
PC-3 prostate = test system: PC-3 prostate
MALME-3M melanoma = test system: MALME-3M melanoma
RXF 393 renal = test system: RXF 393 renal
HCT-15 colon = test system: HCT-15 colon
SR leukemia = test system: SR leukemia
DU-145 prostate = test system: DU-145 prostate
NCI-H23 lung = test system: NCI-H23 lung

COC1=C(OC)C(=O)C(CCCCCCCCCCO)=C(C)C1=O
GI50 (HCC-2998 colon): 16.3 µM | TGI (HCC-2998 colon): 33.5 µM | GI50 (BT-549 breast): 12.7 µM | TGI (BT-549 breast): 25.9 µM | GI50 (SF-539 CNS): 7.49 µM | TGI (SF-539 CNS): 20.3 µM | GI50 (TK-10 renal): 16.6 µM | TGI (TK-10 renal): 30.6 µM | GI50 (COLO 205 colon): 19.6 µM | TGI (COLO 205 colon): 34 µM | GI50 (OVCAR-3 ovarian): 10.2 µM | TGI (OVCAR-3 ovarian): 24.7 µM | GI50 (MCF7 breast): 1.96 µM | TGI (MCF7 breast): 4.45 µM | GI50 (786-0 renal): 9.61 µM | TGI (786-0 renal): 21.7 µM | GI50 (SK-MEL-2 melanoma): 3.2 µM | TGI (SK-MEL-2 melanoma): 8.1 µM | GI50 (U251 CNS): 3.03 µM | TGI (U251 CNS): 12.5 µM | GI50 (HCT-116 colon): 4.46 µM | TGI (HCT-116 colon): 16.1 µM | GI50 (SK-MEL-5 melanoma): 5.92 µM | TGI (SK-MEL-5 melanoma): 19.1 µM | GI50 (HOP-92 NSCLC): 2.53 µM | TGI (HOP-92 NSCLC): 9.84 µM | GI50 (MDA-MB-435): 1.89 µM | TGI (MDA-MB-435): 3.9 µM | GI50 (SNB-19 CNS): 14.8 µM | TGI (SNB-19 CNS): 31.3 µM | GI50 (OVCAR-5 ovarian): 10.7 µM | TGI (OVCAR-5 ovarian): 25.5 µM | GI50 (SNB-75 CNS): 12.1 µM | TGI (SNB-75 CNS): 28 µM | GI50 (IGROV1 ovarian): 9.74 µM | TGI (IGROV1 ovarian): 29.7 µM | GI50 (SW-620 colon): 14.7 µM | TGI (SW-620 colon): 30.9 µM | GI50 (SK-MEL-28 melanoma): 13.5 µM | TGI (SK-MEL-28 melanoma): 26.5 µM | GI50 (ACHN renal): 3.35 µM | TGI (ACHN renal): 11.2 µM | GI50 (M14 melanoma): 15 µM | TGI (M14 melanoma): 31 µM | GI50 (OVCAR-4 ovarian): 1.29 µM | TGI (OVCAR-4 ovarian): 2.6 µM | GI50 (SF-268 CNS): 9.61 µM | TGI (SF-268 CNS): 30.7 µM | GI50 (SN12C renal): 7.39 µM | TGI (SN12C renal): 24.4 µM | GI50 (NCI/ADR-RES ovarian): 3.34 µM | TGI (NCI/ADR-RES ovarian): 13 µM | GI50 (UACC-257 melanoma): 1.84 µM | TGI (UACC-257 melanoma): 4.48 µM | GI50 (MOLT-4 leukemia): 4.54 µM | TGI (MOLT-4 leukemia): 21.7 µM | GI50 (HL-60(TB) leukemia): 3.71 µM | TGI (HL-60(TB) leukemia): 11.5 µM | GI50 (HT29 colon): 14.5 µM | TGI (HT29 colon): 31.6 µM | GI50 (NCI-H460 lung): 14.8 µM | TGI (NCI-H460 lung): 34.9 µM | GI50 (T-47D breast): 2.44 µM | TGI (T-47D breast): 7.43 µM | GI50 (A498 renal): 13.1 µM | TGI (A498 renal): 26.6 µM | GI50 (NCI-H522 lung): 11.2 µM | TGI (NCI-H522 lung): 35.3 µM | GI50 (LOX IMVI melanoma): 0.964 µM | TGI (LOX IMVI melanoma): 9.72 µM | GI50 (KM12 colon): 15.1 µM | TGI (KM12 colon): 58.1 µM | GI50 (SK-OV-3 ovarian): 15.7 µM | TGI (SK-OV-3 ovarian): 29.2 µM | GI50 (CAKI-1 renal): 4.01 µM | TGI (CAKI-1 renal): 29 µM | GI50 (CCRF-CEM leukemia): 3.15 µM | TGI (CCRF-CEM leukemia): 20.4 µM | GI50 (HS 578T breast): 18.3 µM | TGI (HS 578T breast): > 100 µM | GI50 (MDA-MB-231 breast): 5.24 µM | TGI (MDA-MB-231 breast): 22 µM | GI50 (A549 NSCLC): 15.3 µM | TGI (A549 NSCLC): 34.8 µM | GI50 (OVCAR-8 ovarian): 3.76 µM | TGI (OVCAR-8 ovarian): 16.2 µM | GI50 (EKVX NSCLC): 5.89 µM | TGI (EKVX NSCLC): 21.8 µM | GI50 (UACC-62 melanoma): 7.57 µM | TGI (UACC-62 melanoma): 21.4 µM | GI50 (UO-31 renal): 12.7 µM | TGI (UO-31 renal): 26.6 µM | GI50 (RPMI-8226 leukemia): 4 µM | TGI (RPMI-8226 leukemia): 29.5 µM | GI50 (HOP-62 NSCLC): 16 µM | TGI (HOP-62 NSCLC): 29.5 µM | GI50 (NCI-H226 lung): 13.8 µM | TGI (NCI-H226 lung): 29.9 µM | GI50 (PC-3 prostate): 3.76 µM | TGI (PC-3 prostate): 15.6 µM | GI50 (MALME-3M melanoma): 7.47 µM | TGI (MALME-3M melanoma): 21.8 µM | GI50 (RXF 393 renal): 10.1 µM | TGI (RXF 393 renal): 23.9 µM | GI50 (HCT-15 colon): 8.81 µM | TGI (HCT-15 colon): 24.5 µM | GI50 (SR leukemia): 3.18 µM | TGI (SR leukemia): 19 µM | GI50 (DU-145 prostate): 7.77 µM | TGI (DU-145 prostate): 22.4 µM | GI50 (NCI-H23 lung): 3.17 µM | TGI (NCI-H23 lung): 16.6 µM
